One assay addresses T1, KIF5B-RET-BaF3 (Homo sapiens, UniProt P07949).
T1 construct: fused on or other part: P33176 (Kinesin-1 heavy chain)
Briefly: Growth inhibition of KIF5B-RET-BaF3 cells stably transfected with kinase (MTS). The class given is cell-based. Particulars: 48 h, read-out: KIF5B-RET (IC50/nM). How it is done: (§1) Growth inhibitory activity of compounds on cell lines stably transfected with kinase
(§2) The activity of compounds against kinase RET is evaluated by their effect of inhibiting growth of cell lines stably transfected with kinase CCDC6-RET-BaF3, KIF5B-RET-BaF3, and wild-type BaF3 (Proc. Natl. Acad. Sci. USA., 2006, 103, 3153-8.). The growth of the cell lines stably transfected with kinase CCDC6-RET-BaF3, KIF5B-RET-BaF3 depends on their kinase activity. If a compound can inhibit the activity of the kinase RET per se or the activity of the RET signaling pathway, the compound can inhibit the growth of BaF3 cells stably transfected with kinase. […] Therefore, a larger ratio between IC50 of a compound to wild-type BaF3 and IC50 of the compound to the cell lines stably transfected with kinase CCDC6-RET-BaF3, KIF5B-RET-BaF3 indicates better targeting.
(§3) The specific test method is given as follows:
(§4) 1) Medium: DMEM (Dulbecco's modified eagle medium) or RPMI 1640 (containing 10% fetal bovine serum, 100 μg/mL ampicillin, 100 μg/mL streptomycin).
(§5) 2) Reagents: MTS reaction solution (containing 2 mg/mL of MTS [3-(4,5-dimethylthiazol-2-yl)-5-(3-carboxymethoxyphenyl)-2-(4-sulfophenyl)-2H-tetrazolium, inner Salt]; 100 μg/mL PES (phenazine […])).
(§6) 3) Compound test: cells stably transfected with kinase (CCDC6-RET-BaF3, KIF5B-RET-BaF3) or wild-type BaF3 cells (2×10^4 cells/well) were incubated into a 96-well culture plate, the volume of cell culture fluid was 90 μL, and then 10 μL of the compound at each gradient concentration was added (the highest concentration was 10 μM, which was diluted stepwise by ⅓, and 8 concentration points were set in total; the system contained 0.1% DMSO (dimethyl sulfoxide)). The cell plate with uniformly mixed compound was cultured in a cell culture incubator (37° C.; 5% CO2) for 48 h, then 20 μL of MTS reaction solution was added, uniformly mixed and incubated in the cell culture incubator (37° C.; 5% CO2) for 1-4 hr, OD values at 490 nm were measured by a microplate reader (VARIOSKAN FLASH, Thermo). Three parallels were set in each group of experiments, with 0.1% (a final concentration) DMSO as a negative control, and a medium without cells or compounds as a blank control. The cell growth inhibition rate was calculated by the following formula: Cell growth inhibition rate %=1−(ODexperimental group−ODblank group)/(ODnegative group−ODblank group)×100%
(§7) 4) IC50 calculation: The semi-inhibitory concentration of the compound acting on cell growth was calculated using GradPad Prism 5 software according to the measured cell growth inhibition rate.

In a further assay the target is T2, CCDC6-RET-BaF3 (Homo sapiens, UniProt P07949).
T2 construct: fused on or other part: Q16204 (Coiled-coil domain-containing protein 6)
T2 sequence (P07949 whole entry, change not shown, the tested form may be a part): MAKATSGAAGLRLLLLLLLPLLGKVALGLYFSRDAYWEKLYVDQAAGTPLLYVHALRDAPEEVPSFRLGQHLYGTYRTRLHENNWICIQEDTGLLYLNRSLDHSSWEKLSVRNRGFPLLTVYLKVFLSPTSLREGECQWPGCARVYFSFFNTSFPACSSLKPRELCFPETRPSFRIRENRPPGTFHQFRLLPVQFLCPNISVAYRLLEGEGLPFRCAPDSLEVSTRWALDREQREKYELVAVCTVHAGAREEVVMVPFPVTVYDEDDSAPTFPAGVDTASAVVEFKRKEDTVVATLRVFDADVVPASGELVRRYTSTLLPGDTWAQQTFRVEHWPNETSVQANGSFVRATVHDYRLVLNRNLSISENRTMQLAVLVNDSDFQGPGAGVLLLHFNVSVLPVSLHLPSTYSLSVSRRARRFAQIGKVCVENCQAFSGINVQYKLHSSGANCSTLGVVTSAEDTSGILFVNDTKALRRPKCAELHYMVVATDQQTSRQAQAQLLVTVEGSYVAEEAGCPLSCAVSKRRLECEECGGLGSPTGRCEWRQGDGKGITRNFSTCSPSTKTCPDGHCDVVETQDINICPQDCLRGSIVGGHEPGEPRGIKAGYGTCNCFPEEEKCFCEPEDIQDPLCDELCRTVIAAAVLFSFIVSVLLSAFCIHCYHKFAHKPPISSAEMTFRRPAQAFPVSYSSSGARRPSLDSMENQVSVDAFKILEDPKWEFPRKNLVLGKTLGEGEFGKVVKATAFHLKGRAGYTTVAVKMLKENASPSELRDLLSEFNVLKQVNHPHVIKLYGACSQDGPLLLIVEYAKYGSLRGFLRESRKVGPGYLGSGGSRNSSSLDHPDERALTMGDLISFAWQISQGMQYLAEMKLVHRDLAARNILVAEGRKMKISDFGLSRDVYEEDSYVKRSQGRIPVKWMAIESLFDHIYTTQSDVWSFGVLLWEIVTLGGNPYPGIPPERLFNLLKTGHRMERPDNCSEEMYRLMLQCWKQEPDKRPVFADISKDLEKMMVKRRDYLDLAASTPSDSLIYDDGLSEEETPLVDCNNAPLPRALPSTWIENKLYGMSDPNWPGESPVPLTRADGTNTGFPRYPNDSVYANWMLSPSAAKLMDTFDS
Briefly: Growth inhibition of CCDC6-RET-BaF3 cells stably transfected with kinase (MTS). The class given is cell-based. Particulars: 48 h, read-out: CCDC6-RET (IC50/nM). Here is the method:
as §1, §2, §3, §4, §5, §6, §7

T1 sequence (P07949 whole entry, change not shown, the tested form may be a part): as above

On to `CCC(=O)NCC1CCN(c2ccc(NC(=O)c3ccc(C)c(Oc4nc(-c5cccnc5)nc5[nH]ncc45)c3)cc2C(F)(F)F)CC1` [II-v-16], for which the GI50 was 3070 nM on KIF5B-RET-BaF3 and 2490 nM at CCDC6-RET-BaF3.
In the same order, the values of `Cc1ccc(Oc2nc(-c3ccoc3)nc3c2cnn3C)cc1NC(=O)c1ccc(CN2CCN(C)CC2)c(C(F)(F)F)c1` [II-j-3] are 3210 nM and 1420 nM.
In the same order, the values of `Cc1ccc(Oc2nc(-c3ccc(O)cc3)nc3nn(C)cc23)cc1C(=O)Nc1ccc(CN2CCN(C)CC2)c(C(F)(F)F)c1` [IV-n-7] are 3940 nM and 2810 nM.
Turning to `CN1CCN(Cc2ccc(NC(=O)c3cc(Oc4nc(-c5ccsc5)nc5nn(C)cc45)ccc3Cl)cc2C(F)(F)F)CC1` [IV-o-11], the GI50 at KIF5B-RET-BaF3 is 1620 nM; on CCDC6-RET-BaF3 it was 3030 nM.
For `CN1CCN(Cc2ccc(C(=O)Nc3cccc(Oc4cc(-c5ccncc5)nc5sccc45)c3)cc2C(F)(F)F)CC1` [VII-h-2], the GI50 worked out at 1080 nM on KIF5B-RET-BaF3 and 637 nM at CCDC6-RET-BaF3.
`Cc1ccc(Oc2cc(-c3ccncc3)nc3c2ccn3C)cc1C(=O)Nc1ccc(CN2CCN(C)CC2)c(C(F)(F)F)c1` [V-n-16]: the GI50 was found to be 388 nM at KIF5B-RET-BaF3 and 472 nM at CCDC6-RET-BaF3.
For the compound `CC(C)n1cnc2c(Oc3cccc(NC(=O)c4ccc(CN5CCN(C)CC5)c(C(F)(F)F)c4)c3)nc(-c3ccncc3)nc21` [I-h-1], the GI50 on KIF5B-RET-BaF3 worked out at 2290 nM; at CCDC6-RET-BaF3 it was 4930 nM.
In the same order, the values of `CN1CCN(Cc2ccc(NC(=O)c3cc(Oc4nc(-c5ccccc5)nc5c4ncn5C)ccc3Cl)cc2C(F)(F)F)CC1` [I-o-3] are 1380 nM and 1380 nM.
Take `Cc1ccc(C(=O)Nc2ccc(CN3CCN(C)CC3)c(C(F)(F)F)c2)cc1Oc1nc(-c2cccnc2)nc2c1ncn2C` [I-m-2]: the GI50 at KIF5B-RET-BaF3 is 1300 nM; on CCDC6-RET-BaF3 it was 710 nM.
Take `Cc1ccc(Oc2nc(-c3ccoc3)nc3nn(C)cc23)cc1C(=O)Nc1ccc(CN2CCN(C)CC2)c(C(F)(F)F)c1` [IV-n-10]: the results for the GI50 on KIF5B-RET-BaF3 and at CCDC6-RET-BaF3 were 1840 nM and 2160 nM, respectively.
The matching figures for `Cc1ccc(C(=O)Nc2cc(CN3CCN(C)CC3)cc(C(F)(F)F)c2)cc1Oc1nc(-c2cccnc2)nc2c1cnn2C` [II-s-1]: 482 nM and 264 nM.
On to `CCS(=O)(=O)NC1CCN(c2ccc(NC(=O)c3ccc(C)c(Oc4nc(-c5ccncc5)nc5ccn(C)c45)c3)cc2C(F)(F)F)CC1` [III-v-11], for which the GI50 on KIF5B-RET-BaF3 is 1460 nM; on CCDC6-RET-BaF3, 3330 nM.
For `Cc1ccc(Oc2nc(-c3ccccc3)nc3nn(C)cc23)cc1C(=O)Nc1ccc(CN2CCN(C)CC2)c(C(F)(F)F)c1` [IV-n-3], the GI50 on KIF5B-RET-BaF3 was determined as 3540 nM; on CCDC6-RET-BaF3, 4150 nM.
As to `CN1CCN(Cc2ccc(NC(=O)c3cc(Oc4nc(-c5cccnc5)nc5c4ncn5C)ccc3Cl)cc2C(F)(F)F)CC1` [I-o-1], the values for the GI50 at KIF5B-RET-BaF3 and on CCDC6-RET-BaF3 were 1390 nM and 1470 nM, respectively.
As to `CCC(=O)NC1CCN(c2ccc(NC(=O)c3ccc(C)c(Oc4nc(-c5ccncc5)nc5c4cnn5C)c3)cc2C(F)(F)F)CC1` [II-v-8], the GI50 on KIF5B-RET-BaF3 was 407 nM; on CCDC6-RET-BaF3, 346 nM.
In the case of `Cc1ccc(C(=O)Nc2cccc(C(F)(F)F)c2)cc1Oc1nc(-c2cccnc2)nc2c1cnn2C` [II-e-1], the GI50 is 2240 nM on KIF5B-RET-BaF3 and 1970 nM at CCDC6-RET-BaF3.
`Cc1ccc(C(=O)Nc2ccc(CN3CCN(C)CC3)c(C(F)(F)F)c2)cc1Oc1nc(Nc2cccnc2)nc2c1cnn2C` [II-m-11]: the GI50 on KIF5B-RET-BaF3 turned out to be 14.9 nM; on CCDC6-RET-BaF3, 31.8 nM.
As for `Cc1ccc(Oc2cc(-c3cccnc3)nc3sccc23)cc1C(=O)Nc1ccc(CN2CCN(C)CC2)c(C(F)(F)F)c1` [VII-n-1], the GI50 on KIF5B-RET-BaF3 turned out to be 1780 nM; on CCDC6-RET-BaF3, 1690 nM.
In the same order, the values of `Cc1ccc(NC(=O)c2ccc(CN3CCN(C)CC3)c(C(F)(F)F)c2)cc1Oc1nc(-c2cccnc2)nc2ccn(C)c12` [III-i-3] are 3630 nM and 4340 nM.
In the same order, the values of `Cc1ccc(C(=O)Nc2ccc(CN3CCN(C)CC3)c(C(F)(F)F)c2)cc1Oc1nc(N(C)C)nc2c1cnn2C` [II-m-18] are 34.3 nM and 257 nM.
In the case of `Cc1ccc(-c2nc(Oc3cc(C(=O)Nc4ccc(CN5CCN(C)CC5)c(C(F)(F)F)c4)ccc3C)c3cnn(C)c3n2)cc1` [II-m-4], the GI50 on KIF5B-RET-BaF3 came out at 152 nM; on CCDC6-RET-BaF3, 848 nM.
In the case of `Cc1ccc(Oc2nc(-c3ccncc3)nc3cc[nH]c23)cc1NC(=O)c1ccc(CN2CCN(C)CC2)c(C(F)(F)F)c1` [III-j-2], the GI50 at KIF5B-RET-BaF3 turned out to be 2.32 nM; on CCDC6-RET-BaF3 it was 6.06 nM.
As to `CCC(=O)NCC1CCN(c2ccc(NC(=O)c3ccc(C)c(Oc4nc(-c5ccncc5)nc5[nH]ncc45)c3)cc2C(F)(F)F)CC1` [II-v-17], the figures for the GI50 on KIF5B-RET-BaF3 and at CCDC6-RET-BaF3 were 1040 nM and 900 nM, respectively.
Take `CN1CCN(Cc2ccc(NC(=O)c3cc(Oc4nc(-c5cccnc5)nc5c4cnn5C)ccc3Cl)cc2C(F)(F)F)CC1` [II-o-1]: the GI50 at KIF5B-RET-BaF3 worked out at 4020 nM; on CCDC6-RET-BaF3 it was 4170 nM.
On to `Cc1ccc(Oc2cc(-c3ccncc3)nc3[nH]ccc23)cc1C(=O)Nc1cc(CN2CCN(C)CC2)cc(C(F)(F)F)c1` [V-r-1], for which the GI50 at KIF5B-RET-BaF3 is 2810 nM; on CCDC6-RET-BaF3, 2960 nM.
In the case of `Cc1ccc(C(=O)Nc2ccc(CN3CCN(C)CC3)c(C(F)(F)F)c2)cc1Oc1nc(-c2cccc(Cl)c2)nc2c1cnn2C` [II-m-5], the GI50 on KIF5B-RET-BaF3 was 320 nM; on CCDC6-RET-BaF3, 807 nM.
On to `CN1CCN(Cc2ccc(NC(=O)c3cc(Oc4nc(-c5cccc(N)c5)nc5c4ncn5C)ccc3Cl)cc2C(F)(F)F)CC1` [I-o-8], for which the GI50 on KIF5B-RET-BaF3 was determined as 1490 nM; at CCDC6-RET-BaF3, 1590 nM.
`Cc1ccc(Oc2nc(-c3ccc(N)cc3)nc3c2ncn3C)cc1C(=O)Nc1ccc(CN2CCN(C)CC2)c(C(F)(F)F)c1` [I-n-10]: the GI50 on KIF5B-RET-BaF3 and on CCDC6-RET-BaF3 was 1400 nM throughout.
For `CN1CCN(Cc2cc(NC(=O)c3cccc(Oc4nc(-c5cccnc5)nc5ccn(C)c45)c3)cc(C(F)(F)F)c2)CC1` [III-p-3], the GI50 on KIF5B-RET-BaF3 amounted to 3380 nM; on CCDC6-RET-BaF3 it was 4530 nM.
For the compound `Cc1ccc(Oc2nc(-c3ccccc3)nc3c2ncn3C)cc1C(=O)Nc1ccc(CN2CCN(C)CC2)c(C(F)(F)F)c1` [I-n-4], the GI50 was 2370 nM on KIF5B-RET-BaF3 and 2700 nM at CCDC6-RET-BaF3.
For the compound `CN1CCN(Cc2cc(NC(=O)c3cccc(Oc4nc(-c5ccncc5)nc5c4cnn5C)c3)cc(C(F)(F)F)c2)CC1` [II-p-2], the GI50 at KIF5B-RET-BaF3 worked out at 521 nM; at CCDC6-RET-BaF3, 458 nM.
On to `Cc1ccc(C(=O)Nc2ccc(CN3CCN(C)CC3)c(C(F)(F)F)c2)cc1Oc1nc(-c2cccc(O)c2)nc2c1cnn2C` [II-m-7], for which the GI50 on KIF5B-RET-BaF3 amounted to 28.3 nM; at CCDC6-RET-BaF3, 178 nM.
For the compound `Cc1ccc(Oc2nc(-c3cccnc3)nc3ccn(C)c23)cc1NC(=O)c1ccc(CN2CCN(C)CC2)c(C(F)(F)F)c1` [III-j-5], the GI50 at KIF5B-RET-BaF3 is 3100 nM; on CCDC6-RET-BaF3 it was 4260 nM.
Take `CN1CCN(Cc2ccc(NC(=O)c3cccc(Oc4nc(-c5ccncc5)nc5cc[nH]c45)c3)cc2C(F)(F)F)CC1` [III-l-2]: the results for the GI50 on KIF5B-RET-BaF3 and at CCDC6-RET-BaF3 were 5.71 nM and 22.7 nM, respectively.
For `Cc1ccc(Oc2nc(-c3cccc(O)c3)nc3nn(C)cc23)cc1C(=O)Nc1ccc(CN2CCN(C)CC2)c(C(F)(F)F)c1` [IV-n-6], the values for the GI50 on KIF5B-RET-BaF3 and at CCDC6-RET-BaF3 were 4230 nM and 4310 nM, respectively.
As to `CN1CCN(Cc2ccc(NC(=O)c3cc(Oc4nc(-c5ccc(Cl)cc5)nc5nn(C)cc45)ccc3Cl)cc2C(F)(F)F)CC1` [IV-o-5], the GI50 at KIF5B-RET-BaF3 is 3390 nM; at CCDC6-RET-BaF3, 4090 nM.

These data come from patent publication US11319322B2, “Substituted aryl ether compound, preparation method thereof, pharmaceutical composition and use thereof” (Xiamen University, priority 2017, dated 2022).
